# Experimental data published in patent publication US20260174780A1, “BISMUTH-THIOL COMPOSITIONS AND METHODS FOR TREATING INFLAMMATORY DISEASES” (Microbion Corporation, priority 2022, published 2026).
# Entries after “also recorded” stand apart in the source; their conditions may differ.
# How the values were obtained:
# [1] = test system: NLRP3 inflammasome; assay: RT-qPCR of NLRP3 inflammasome expression in THP-1 macrophages, uninfected or infected; format: cell-based
# Protocol: THP-1 macrophages were differentiated with 50 ng/ml PMA for 24 hours, followed by 24 hours in media prior to infection. Differentiated THP-1 macrophages were infected with M. avium or M. abscessus for 1 hour with an MOI of 5. Infected cells were washed twice, followed by 1 hour of antibiotic treatment with 200 μg/ml of amikacin to remove extracellular bacteria. […] The treatments (see Table 2) included: (1) uninfected, (2) uninfected+range of BisEDT, (3) untreated+infected with M. avium, (4) M. avium infected+BIZ, (5) untreated+M. abscessus, and (6) M. abscessus infected+BIZ. The time points for sample preparation were 48 hours post infection. CFUs were determined as described above and RNA was collected from similar experiments.
# THP-1 RNA from the cells was isolated using the Rneasy mini kit (Qiagen), followed by treatment with Dnase 1 recombinant (Roche Diagnostics) for 1 hour at 37° C. to remove contaminating genomic DNA. The DNase was inactivated with Turbo DNase-inactivation reagent (Turbo DNA-free kit, Thermo Fisher Scientific) for 2 min at 37° C. Inactivation reagent was removed via centrifugation for 1 min at 10,000×g, and RNA transferred to new collection tubes. RNA samples were stored at […] for future processing. cDNA was transcribed from host RNA using the iScript cDNA synthesis kit (Bio-Rad). The quality of cDNA was tested by PCR with Gold 360 master mix using the manufacturer's specifications (Thermo Fisher Scientific). The RT-qPCR reaction was performed using iQ SYBR Green Supermix (Bio-Rad) and an iCycler (CFX Connect Real-Time Systems, Bio-Rad) as previously described (1). Standard curves for each gene were run in each reaction and used to calculate absolute values of mRNA. Gene expression data are presented as relative expression to beta-actin. Primers (Table 3) were designed in Primer3 using sequences from GenBank (National Center for Biotechnology Information).
# [2] = test system: Hypo-InflammaSkin models; assay: Ex vivo human skin model of psoriasis (Hypo-InflammaSkin), cytokine release in culture medium; format: cell-based; conditions: for secretion of IL-22: Day 7 (FIG. 13R); for secretion of MIP-3α: Day 7 (FIG. 13S)
# From the text: Background: InflammaSkin® model is a validated psoriasis-like model developed to reproduce key features of pro-Th17/Th1 inflammation associated with psoriasis. It relies on the in situ activation of resident T-cell of normal skin biopsies and their further polarization into Th17/Th1 phenotype with the supplementation of culture medium with a cocktail of pro-inflammatory cytokines.
# Model production and culture: 2 HypoSkin models of 15 mm in diameter (1.76 cm^2) were produced from 1 donor and cultured with 2 mL standard HypoSkin® medium. 20 Hypo-InflammaSkin models were produced from 1 donor by inducing in sit activation and Th17/Th1 polarization of skin resident T cells with proprietary cocktail and cultured with 2 mL Hypo-InflammaSkin® culture medium. The total treatable surface area of the models was 113 mm^2, and dosing of BisEDT took this into account based on dosing of the topical treatment. Models were maintained in standard cell culture conditions for the whole culture duration at 37° C., 5% CO2 and water saturation, with appropriate culture medium renewed every day.
# Treatment Groups: Model Treatment: (1) HypoSkin® untreated control; (2) Hypo-InflammaSkin® untreated control; (3) topical betamethasone (positive control); (4) topical BisEDT—2.5 mg/mL (treatment applied every day from day 0 to 6; (5) topical BisEDT—1.25 mg/mL (treatment applied every day from day 3 to 6). N=3 per treatment group, except N=5 for Hypo-InflammaSkin® and N=1 for HypoSkin®.
# Topical Treatment—Betamethasone (control): 25 μL of betamethasone was topically applied onto the surface of each skin model. Topical application was performed from Day 0 to Day 6 after removal of the previous treatment residues using a cotton swab.
# Topical Treatment—BisEDT: 36 μL of the test compound was topically applied onto the surface of each skin model, massaging across the entire surface area for 1 minute, using a parafilm wrapped cotton swab; the compound was left on the skin. Topical application was performed from Day 0 to Day 6 (Treatment Group 4) or Day 3 to Day 6 (Treatment Group 5). A total of 9 models were topically treated.
# Culture Media—culture media was collected on Day 3 prior to treatment application and on Day 7 and frozen at −80° C. A total of 42 culture media samples were collected.
# IL-22 release: IL-22 release was measured in culture media using ELISA Human IL-22 Quantikine Kit (Bio-techne, ref D2200). Only samples from control conditions 1 to 3 were analyzed to assess donor's response to T cell activation. Each sample was analyzed in duplicate.
# MSD Immunoassay—cytokine release (IL-2, IL-13, IL-15, IL-17A, IL-22, TNF-α, INF-γ, MIP-1β, and […]) in the culture medium was measured using the V-PLEX Plus Human Cytokine Kit (KI5089G, MesoScale Discovery) (FIGS. 13D-13S).
# [3] = Day 3, compared to HypoInflammaSkin
# [4] = Day 7, compared to untreated HypoInflammaSkin controls
structure (smiles),measurement,setting,value
"C1C[S][Bi]([S]CC[S][Bi]2[S]CC[S]2)[S]1 [BisEDT, 1,2-(Bis(1,3-dithia-2-bismolane)thio)ethane]",inhibitory effect on NLRP3 expression,[1]; BisEDT used after the infections,the inhibitory effect was not observed
same,NLRP3 expression,[1]; M. abscessus (MAB 19977) infected cells pretreated with 0.5 μg/ml,reduced NLRP3 expression
same,NLRP3 expression,[1]; M. abscessus infected cells,remained unchanged
same,NLRP3 expression,"[1]; M. avium (MAH 104) infected cells pre-treated with 2 μg/ml, vs M. avium only infected cells",higher NLRP3 expression
same,NLRP3 expression,"[1]; MAH 104 infection, 4 μg/ml treatment, vs MAH 104 infected cells",reduced NLRP3 expression
same,NLRP3 inhibition,[1]; NTM-infected macrophages,even greater dose-related NLRP3 inhibition
same,NLRP3 expression,[1]; pre-treatment with 1 μg/ml prior to MAB 19977 infection,did not impact NLRP3 expression
same,NLRP3 inflammasome expression relative to beta-actin,[1]; uninfected THP-1 cells,dose-related inhibitory effect; also recorded: inhibits AIM2 and NLRP3 inflammasome expression
same,MIP-1β levels vs betamethasone,[2],lower than the steroid betamethasone
same,"reducing/preventing inflammation induced in the HypoInflammaSkin models, vs betamethasone",[2],more effective than betamethasone
same,secretion of IL-13,[2]; [3],reduced secretion
same,secretion of IL-15,[2]; [3],reduced secretion
same,secretion of IL-17A,[2]; [3],reduced secretion
same,secretion of INF-γ,[2]; [3],reduced secretion
same,secretion of MIP-110,[2]; [3],reduced secretion
same,secretion of TNF-α,[2]; [3],reduced secretion
same,IL-17A secretion,"[2]; Day 3 and Day 7 (FIGS. 13D, 13E), compared to untreated HypoInflammaSkin",notable reduction
same,TNF-α,"[2]; Day 3 and Day 7 (FIGS. 13F, 13G), compared to untreated HypoInflammaSkin control",reduction
same,IFNγ secretion,"[2]; Day 3 and Day 7 (FIGS. 13H, 13I), compared to untreated HypoInflammaSkin control",reduced
same,secretion of MIP-1β,"[2]; Day 3 and Day 7 (FIGS. 13L, 13M), compared to untreated HypoInflammaSkin",statistically significant decrease
same,MIP-1β level,[2]; Day 7,two out of three replicates below LOQ
same,secretion of IL-22,"[2]; compared to untreated HypoInflammaSkin control, listed as Pravibismane",reduced secretion
same,secretion of IL-22,"[2]; compared to untreated HypoInflammaSkin control, listed as pravibismane",continued to decrease
same,secretion of MIP-3α,"[2]; compared to untreated HypoInflammaSkin, listed as Pravibismane",statistically significant decrease
same,secretion of MIP-3α,"[2]; compared to untreated HypoInflammaSkin, listed as pravibismane",continued to decrease
same,secretion of IFN-γ,[2]; [4],continued to decrease
same,secretion of IL-13,[2]; [4],continued to decrease
same,secretion of IL-15,[2]; [4],continued to decrease
same,secretion of IL-17A,[2]; [4],continued to decrease
same,secretion of MIP-1β,[2]; [4],continued to decrease
same,secretion of TNF-α,[2]; [4],continued to decrease
same,IL-15 secretion,"[2]; pravibismane (day 3), compared to untreated HypoInflammaSkin",statistically significant reduction
same,IL-15 secretion vs HypoSkin untreated,[2]; pravibismane treatment (day 3),even lower than healthy uninflamed skin
same,IL-17A levels vs positive control (betamethasone),"[2]; topical, started at day 0 or day 3",even lower than positive control
same,IL-13 secretion,"[2]; treatment from day 0 (FIGS. 13N, 13O), compared to HypoInflammaSkin control",reduced
same,IFN-γ levels vs positive control (betamethasone),[2]; treatment starting at Day 0,even lower than positive control
same,TNF-α levels vs positive control (betamethasone),[2]; treatment starting at Day 0,even lower than positive control
